Experimental data published in US8178658B2 (Dow AgroSciences, LLC, priority 2008, dated 2012).

Columns and labels:
[1] = system: beet armyworm (BAW; Spodoptera exigua: Lepidoptera); test: 128-well diet tray assay on beet armyworm (BAW 50); assay type: in vivo; conditions: 128-well diet tray assay, second instar BAW larvae, mortality class
Protocol: (§1) Bioassays on beet armyworm (BAW; Spodoptera exigua: Lepidoptera) were conducted using either a 96-well microtiter plate-based high throughput (HTS) bioassay or a 128-well diet tray assay. The HTS assay is a based on a modification of Lewer et al. J. Nat. Prod. 2006, 69, 1506. BAW eggs of were placed on top of artificial diet (100 μl) in each well of 96-well microtiter plate. The diet was pretreated with test compounds (12 μg dissolved in 30 μL of DMSO-acetone-water mixture) layered on top of the diet using a liquid handling system and then allowed to dry for several hours. Infested plates were then covered with a layer of sterile cotton batting and the plate lid, and then held in the dark at 29° C. Mortality was recoded at 6 d post-treatment. Each plate had six replicates. The percent mortality was calculated from the average of the six replicates. In the case of the 128-well diet assay, three to five second instar BAW larvae were placed in each well (3 mL) of the diet tray that had been previously filled with 1 mL of artificial diet to which 50 μg/cm^2 of the test compound (dissolved in 50 μL of 90:10 acetone-water mixture) had been applied (to each of eight wells) and then allowed to dry. Trays were covered with a clear self-adhesive cover, and held at 25° C., 14:10 light-dark for six days. Percent mortality was recorded for the larvae in each well; activity in the eight wells was then averaged. In Table 7, under the BAW HTS or BAW 50 heading, an “A” means that the compound was tested and at least 50 percent mortality was observed whereas, “B” means that either (1) the compound was tested and less than 50 percent mortality was observed or (2) the compound was not tested.

[2] = system: beet armyworm (BAW; Spodoptera exigua: Lepidoptera); test: 96-well microtiter plate-based high throughput (HTS) diet bioassay on beet armyworm (BAW HTS); assay type: in vivo; conditions: BAW eggs, 12 μg test compound per well, mortality at 6 d post-treatment, mortality class
Protocol: as §1

[3] = 50 μg/cm^2 of test compound on diet
[4] = 96-well microtiter plate HTS diet assay

| Compound | BAW 50 ug/cm2 [1, 3] | BAW HTS ([2]; 96-well HTS diet bioassay) | BAW HTS [2, 4] | BAW 50 ug/cm2 ([1]; 50 μg/cm2 of test compound on diet) | pest or weed control at 50 µg/cm2, 50 µg/cm2 ([1]; Spodoptera exigua, 144 h, 50 μg/cm^2 of test compound on diet, read-out: BAW 50 ug/cm2) | pest or weed control at 12 µg/well, 12 µg/well ([2]; Spodoptera exigua, 144 h, 96-well microtiter plate HTS diet assay, read-out: BAW HTS) |
| --- | --- | --- | --- | --- | --- | --- |
| COC1C(C)OC(ON=Cc2ccc(C3=NN(c4ccc(OC(F)(F)F)cc4)CC3)cc2)C(OC)C1OC (stereo not shown) [Compound 15] | A (the compound was tested and at least 50 percent mortality was observed) | B (either (1) the compound was tested and less than 50 percent mortality was observed or (2) the compound was not tested) | B (either (1) the compound was tested and less than 50 percent mortality was observed or (2) the compound was not tested) | – | – | – |
| COC1C(C)OC(ON=Cc2ccc(-n3cnc(-c4ccc(Br)cc4)c3)cc2)C(OC)C1OC (stereo not shown) [Compound 16] | B (either (1) the compound was tested and less than 50 percent mortality was observed or (2) the compound was not tested) | A (the compound was tested and at least 50 percent mortality was observed) | A (the compound was tested and at least 50 percent mortality was observed) | – | – | – |
| COC1C(C)OC(ON=Cc2ccc(-c3cn(-c4cccc(Cl)c4C#N)cn3)cc2)C(OC)C1OC (stereo not shown) [Compound 17] | B (either (1) the compound was tested and less than 50 percent mortality was observed or (2) the compound was not tested) | A (the compound was tested and at least 50 percent mortality was observed) | A (the compound was tested and at least 50 percent mortality was observed) | – | – | – |
| COC1C(C)OC(ON=Cc2ccccc2-c2cn(-c3ccc(OC(F)(F)F)cc3)cn2)C(OC)C1OC (stereo not shown) [Compound 19] | B (either (1) the compound was tested and less than 50 percent mortality was observed or (2) the compound was not tested) | B (either (1) the compound was tested and less than 50 percent mortality was observed or (2) the compound was not tested) | B (either (1) the compound was tested and less than 50 percent mortality was observed or (2) the compound was not tested) | – | – | – |
| COC1C(C)OC(ON=Cc2c(F)ccc(-c3cn(-c4ccc(OC(F)(F)F)cc4)cn3)c2F)C(OC)C1OC (stereo not shown) [Compound 21] | B (either (1) the compound was tested and less than 50 percent mortality was observed or (2) the compound was not tested) | A (the compound was tested and at least 50 percent mortality was observed) | A (the compound was tested and at least 50 percent mortality was observed) | – | – | – |
| COC1C(C)OC(ON=Cc2ccc(-c3cn(-c4cccc(F)n4)cn3)cc2)C(OC)C1OC (stereo not shown) [Compound 22] | B (either (1) the compound was tested and less than 50 percent mortality was observed or (2) the compound was not tested) | B (either (1) the compound was tested and less than 50 percent mortality was observed or (2) the compound was not tested) | B (either (1) the compound was tested and less than 50 percent mortality was observed or (2) the compound was not tested) | – | – | – |
| COC1C(C)OC(ON=Cc2ccc(-c3cn(-c4cc(I)ccn4)cn3)cc2)C(OC)C1OC (stereo not shown) [Compound 23] | B (either (1) the compound was tested and less than 50 percent mortality was observed or (2) the compound was not tested) | B (either (1) the compound was tested and less than 50 percent mortality was observed or (2) the compound was not tested) | B (either (1) the compound was tested and less than 50 percent mortality was observed or (2) the compound was not tested) | – | – | – |
| COC1C(C)OC(ON=Cc2ccc(-c3cn(-c4cc(F)cc(F)c4)cn3)cc2)C(OC)C1OC (stereo not shown) [Compound 24] | B (either (1) the compound was tested and less than 50 percent mortality was observed or (2) the compound was not tested) | A (the compound was tested and at least 50 percent mortality was observed) | A (the compound was tested and at least 50 percent mortality was observed) | – | – | – |
| COc1ccc(-c2cn(-c3ccc(OC(F)(F)F)cc3)cn2)cc1C=NOC1OC(C)C(OC)C(OC)C1OC (stereo not shown) [Compound 25] | B (either (1) the compound was tested and less than 50 percent mortality was observed or (2) the compound was not tested) | B (either (1) the compound was tested and less than 50 percent mortality was observed or (2) the compound was not tested) | B (either (1) the compound was tested and less than 50 percent mortality was observed or (2) the compound was not tested) | – | – | – |
| CO[C@@H]1[C@@H](OC)[C@H](C)O[C@@H](O/N=C/c2ccc(-c3cn(-c4ccc(OC(F)(F)F)cc4)cn3)cc2)[C@@H]1OC [Compound 26, 4-[1-(4-Trifluoromethoxyphenyl)-1H-imidazol-4-yl]-benzaldehyde O-((2S,3R,4R,5S,6S)-3,4,5-trimethoxy-6-methyl-tetrahydropyran-2-yl)-oxime] | – | A (the compound was tested and at least 50 percent mortality was observed) | – | A (the compound was tested and at least 50 percent mortality was observed) | > 50% | > 50% |
| CCCc1ccc(-n2cnc(-c3ccc(C=NOC4OC(C)C(OC)C(OC)C4OC)cc3)c2)cc1 (stereo not shown) [Compound 27] | A (the compound was tested and at least 50 percent mortality was observed) | A (the compound was tested and at least 50 percent mortality was observed) | A (the compound was tested and at least 50 percent mortality was observed) | – | – | – |
| CCCc1ccc(-n2cnc(-c3ccc(/C=N/O[C@@H]4O[C@@H](C)[C@H](OC)[C@@H](OCC)[C@H]4OC)cc3)c2)cc1 [Compound 29] | A (the compound was tested and at least 50 percent mortality was observed) | B (either (1) the compound was tested and less than 50 percent mortality was observed or (2) the compound was not tested) | B (either (1) the compound was tested and less than 50 percent mortality was observed or (2) the compound was not tested) | – | – | – |
| COC1C(C)OC(ON=Cc2ccc(-c3cn(-c4ccc(OC(F)(F)F)cc4)cn3)cc2)C(OC)C1OC (stereo not shown) [Compound 30] | A (the compound was tested and at least 50 percent mortality was observed) | A (the compound was tested and at least 50 percent mortality was observed) | A (the compound was tested and at least 50 percent mortality was observed) | – | – | – |
| COC1C(C)OC(ON=Cc2ccc(-c3cn(-c4ccc(C(F)(F)F)cn4)cn3)cc2)C(OC)C1OC (stereo not shown) [Compound 32] | A (the compound was tested and at least 50 percent mortality was observed) | A (the compound was tested and at least 50 percent mortality was observed) | A (the compound was tested and at least 50 percent mortality was observed) | – | – | – |
| CCOC1C(C)OC(ON=Cc2ccc(-c3cn(-c4ccc(C(F)(F)F)cn4)cn3)cc2)C(OCC)C1OCC (stereo not shown) [Compound 33] | A (the compound was tested and at least 50 percent mortality was observed) | A (the compound was tested and at least 50 percent mortality was observed) | A (the compound was tested and at least 50 percent mortality was observed) | – | – | – |
| COC1C(C)OC(ON=Cc2ccc(-c3cn(-c4cc(Br)ccc4Cl)cn3)cc2)C(OC)C1OC (stereo not shown) [Compound 34] | A (the compound was tested and at least 50 percent mortality was observed) | B (either (1) the compound was tested and less than 50 percent mortality was observed or (2) the compound was not tested) | B (either (1) the compound was tested and less than 50 percent mortality was observed or (2) the compound was not tested) | – | – | – |
| COc1ccc(C=NOC2OC(C)C(OC)C(OC)C2OC)cc1-c1cn(-c2ccc(OC(F)(F)F)cc2)cn1 (stereo not shown) [Compound 35] | A (the compound was tested and at least 50 percent mortality was observed) | B (either (1) the compound was tested and less than 50 percent mortality was observed or (2) the compound was not tested) | B (either (1) the compound was tested and less than 50 percent mortality was observed or (2) the compound was not tested) | – | – | – |
| COC1C(C)OC(ON=Cc2ccc(-c3cn(-c4ccc(OC(F)(F)F)cc4)cn3)cc2F)C(OC)C1OC (stereo not shown) [Compound 36] | A (the compound was tested and at least 50 percent mortality was observed) | B (either (1) the compound was tested and less than 50 percent mortality was observed or (2) the compound was not tested) | B (either (1) the compound was tested and less than 50 percent mortality was observed or (2) the compound was not tested) | – | – | – |
| COC1C(C)OC(ON=Cc2ccc(-c3cn(-c4ccc(OCC(F)(F)F)cc4)cn3)cc2)C(OC)C1OC (stereo not shown) [Compound 37] | A (the compound was tested and at least 50 percent mortality was observed) | B (either (1) the compound was tested and less than 50 percent mortality was observed or (2) the compound was not tested) | B (either (1) the compound was tested and less than 50 percent mortality was observed or (2) the compound was not tested) | – | – | – |
